Source: US7928102B2, “Irradiated compositions and treatment of cancers with radiation in combination with taurolidine and/or taurultam” (Ed. Geistlich Soehne AG fuer Chemische Industrie, priority 2006, dated 2011)
Read-outs that look alike come from different tables or passages of the source. One block for each molecule: values may come before it.

Key:
[1] = tested on: Murine melanoma B16 4A5 cells; experiment: Cell cycle by FACScan analysis; type: cell-based
Protocol: (§1) Murine melanoma B16 4A5 and B16 F10 cells were treated with taurolidine (0-200 μg/ml), X-ray (Roentgen) radiation (0-4 Gy), or their combination for different time points. Cell cycle was assessed by FACScan analysis. Cell apoptosis and necrosis were determined by FACScan analysis and MTT assay, and further confirmed by DNA gel electrophoresis.

[2] = tested on: Murine melanoma B16 F10 cells; experiment: Cell cycle by FACScan analysis; type: cell-based
Protocol: as §1

[3] = tested on: Murine melanoma B16 4A5 cells; experiment: Cell apoptosis and necrosis by FACScan analysis, MTT assay, DNA gel electrophoresis; type: cell-based
Protocol: as §1

[4] = tested on: Murine melanoma B16 F10 cells; experiment: as above; type: cell-based; details: taurolidine 10-200 μg/ml
Protocol: as §1

B16 4A5 cells = experiment: Melanoma tumour growth in vivo, B16 4A5 cells injected into right flank; parameters: species or system C57BL/6 mice
Protocol: C57BL/6 mice (8-10 week old) (n=120) were injected with B16 4A5 cells (5×10^5 per mouse) into the right flank and divided into control, PVP (solvent for taurolidine), taurolidine (5 mg/mouse, i.p), radiation (5 Gy/mouse), and taurolidine plus radiation. Tumour growth rate, tumour/body weight ratio, lung metastases, and survival rate were recorded. Intra-tumour cell mitosis/apoptosis index, microvessel desity, and splenic cytotoxic T-lymphocyte (CTL) and nature killer (NK) cell-mediated cytotoxic activity were also accessed.

[5] = Evaluation of crystalline taurolidine powder after sterilisation by gamma-radiation; type: physicochemical
Protocol: Two batches of normal crystalline taurolidine powder were produced and sterilised by gamma-radiation. The taurolidine crystals 0.5 g were weighed into 5 ml vials under sterile conditions and laminar flow. The vials were closed by rubber stoppers and seal caps. The closed vials were then radiated with gamma rays of 25 kGy (Range certification 26-30 kGy) and subsequently analysed.

[6] = Gamma irradiation of aqueous 1% taurolidine solution, radiolysis products; type: physicochemical; details: approx. 25 gKy, aqueous 1% solution in 500 ml glass bottles; for content after γ-irradiation of a 1% taurolidine solution: IR, HPLC/MS, amino acid analysis
Protocol: Examination of an aqueous 1% taurolidine solution for radiolysis products. After γ-irradiation (approx. 25 gKy) of a 1% taurolidine solution contained in 500 ml glass bottles the following products can be isolated, or quantitatively determined by means of IR spectroscopy, HPLC/MS analysis, amino acid analysis: […]

[7] = tested on: C2C12 Muscle Myoblast Cells; experiment: Acute toxicity: cell adhesion evaluated microscopically; details: for Adhesion of C2C12 Muscle Myoblast Cells: then 20 h, % of control cultures
Protocol: (§2) In the present report, the acute toxicity of dehydrotaurultam was evaluated compared to taurultam. For this, two different categories of cells (muscle cells and fibroblasts) were incubated with three different concentrations of the two test substances for different periods of time. A possible toxic effect of the test substances on the cells was analyzed 20 hours later. The measures to determine possible cell damage were viability and level of cell adhesion.
(§3) The COS-7 and C2C12 cell lines were plated at 50% confluence on 48 well dishes, and incubated for 24 hours at 37°. Then the media were changed. To this, either unmodified medium (control), or medium containing 0.1%, 0.25% or 0.5% taurultam or dehydrotaurultam was used. The cell cultures were incubated at 37° for 5, 10, 20, 60 and 120 minutes, and then washed three times with fresh medium. After a further 20 hours in the incubator at 37°, the cells were evaluated.
(§4) As a measure of viability, the extent of cell adhesion was evaluated microscopically.
(§5) Cell adhesion was analyzed after 20 hours of incubation with taurultam and dehydrotaurultam respectively.
(§6) Muscle cells were incubated with taurultam or dehydrotaurultam (0.1%, 0.25%, 0.5%) for 5, 10, 20, 60 and 120 minutes at 37°. After rinsing them three times with a regular medium, the cultures were incubated for another 20 h. Then the extent of cells adhesion was examined microscopically.

COS-7 Fibroblasts [8] = experiment: as above; details: for Adhesion of COS-7 Fibroblasts: then 20 h, % of control cultures
Protocol: (§7) For this, two different categories of cells (muscle cells and fibroblasts) were incubated with three different concentrations of the two test substances for different periods of time. A possible toxic effect of the test substances on the cells was analyzed 20 hours later. The measures to determine possible cell damage were viability and level of cell adhesion.
as §3, §4, §5
(§8) Fibroblasts were incubated with taurultam or dehydrotaurultam (0.1%, 0.25%, 0.5%) for 5, 10, 20, 60 and 120 minutes at 37°. After rinsing them three times with a regular medium, the cultures were incubated for another 20 h. Then the extent of adhesion of the cells was examined microscopically.

[9] = tested on: C2C12 Muscle Myoblast Cells; details: mouse
Protocol: as §2, §3, §4, §5, §6

COS-7 Fibroblasts [10] = tested on: COS-7 Fibroblasts
Protocol: as §7, §3, §4, §5, §8

[11] = taurolidine alone, 0-200 μg/ml, different time points
[12] = taurolidine in combination with X-ray radiation (0-4 Gy)
[13] = taurolidine 5 mg/mouse i.p. plus radiation 5 Gy/mouse
[14] = taurolidine 5 mg/mouse i.p. plus radiation 5 Gy/mouse vs taurolidine alone (p<0.01) or radiation alone (p<0.01)

SMILES: O=S1(=O)CCN(CN2CCS(=O)(=O)NC2)CN1 [taurolidine]
- cell cycle [1, 11]: cell cycle at G0/G1 phase with an enhanced sub-G1 population in a dose- and time-dependent manner
- cell cycle [1, 12]: cell cycle arrest at G2/M phase with absence of sub-G1 population
- cell cycle [2, 11]: cell cycle at G0/G1 phase with an enhanced sub-G1 population in a dose- and time-dependent manner
- cell cycle [2, 12]: cell cycle arrest at G2/M phase with absence of sub-G1 population
- apoptosis ([3]; 25 μg/ml taurolidine alone): failed to induce apoptosis
- apoptosis ([3]; 25 μg/ml taurolidine in combination with 0.5 Gy radiation): 70%
- cell apoptosis ([3]; taurolidine 10-200 μg/ml): dose- and time-dependent cell apoptosis
- cell apoptosis [4]: dose- and time-dependent cell apoptosis
- nature killer (NK) cell cytotoxic activity (B16 4A5 cells; [13]): enhanced
- splenic cytotoxic T-lymphocyte (CTL) cytotoxic activity (B16 4A5 cells; [13]): enhanced
- survival (B16 4A5 cells; [13]): improved survival
- lung metastatic nodules (B16 4A5 cells; [14]): greater reduction
- tumour growth rate (B16 4A5 cells; [14]): greater reduction
- tumour/body weight ratio (B16 4A5 cells; [14]): greater reduction
- primary and metastatic melanoma tumour growth (B16 4A5 cells; taurolidine 5 mg/mouse i.p. plus radiation 5 Gy/mouse, compared to untreated animals (p<0.001)): significantly attenuated
- intra-tumour cell mitosis/apoptosis index (B16 4A5 cells; taurolidine plus radiation group): significant decreased
- Solubility [5]: 1%
- evaluation of stability after sterilization by gamma radiation [5]: identical with non-radiated crystals
- Endotoxins ([5]; crystalline powder after gamma rays of 25 kGy): negative
- amount after γ-irradiation of a 1% taurolidine solution [6]: 3,900 mg
- content after γ-irradiation of a 1% taurolidine solution [6]: 0.78%

SMILES: OCO [methylene glycol]
- amount after γ-irradiation of a 1% taurolidine solution [6]: 81 mg
- content after γ-irradiation of a 1% taurolidine solution [6]: 0.0160%

SMILES: O=S1(=O)CCNCN1 [taurultam]
- Adhesion of C2C12 Muscle Myoblast Cells ([7]; 0.1%, incubation 5 min): 100%
- Adhesion of C2C12 Muscle Myoblast Cells ([7]; 0.1%, incubation 5 min, listed as Taurultam): 100%
- Adhesion of C2C12 Muscle Myoblast Cells ([7]; 0.1%, incubation 10 min): 100%
- Adhesion of C2C12 Muscle Myoblast Cells ([7]; 0.1%, incubation 10 min, listed as Taurultam): 100%
- Adhesion of C2C12 Muscle Myoblast Cells ([7]; 0.1%, incubation 20 min): 100%
- Adhesion of C2C12 Muscle Myoblast Cells ([7]; 0.1%, incubation 20 min, listed as Taurultam): 100%
- Adhesion of C2C12 Muscle Myoblast Cells ([7]; 0.1%, incubation 60 min): 90%
- Adhesion of C2C12 Muscle Myoblast Cells ([7]; 0.1%, incubation 120 min): 60%
- Adhesion of C2C12 Muscle Myoblast Cells ([7]; 0.1%, incubation 120 min, listed as Taurultam): 60%
- Adhesion of C2C12 Muscle Myoblast Cells ([7]; 0.25%, incubation 5 min): 100%
- Adhesion of C2C12 Muscle Myoblast Cells ([7]; 0.25%, incubation 10 min): 95%
- Adhesion of C2C12 Muscle Myoblast Cells ([7]; 0.25%, incubation 20 min): 90%
- Adhesion of C2C12 Muscle Myoblast Cells ([7]; 0.25%, incubation 60 min): 70%
- Adhesion of C2C12 Muscle Myoblast Cells ([7]; 0.25%, incubation 120 min): 60%
- cell adhesion, muscle cells ([7]; 0.25%, incubation periods of 60 and 120 minutes): 60-70%
- Adhesion of C2C12 Muscle Myoblast Cells ([7]; 0.5%, incubation 5 min): 95%
- Adhesion of C2C12 Muscle Myoblast Cells ([7]; 0.5%, incubation 10 min): 90%
- Adhesion of C2C12 Muscle Myoblast Cells ([7]; 0.5%, incubation 20 min): 90%
- Adhesion of C2C12 Muscle Myoblast Cells ([7]; 0.5%, incubation 60 min): 60%
- Adhesion of C2C12 Muscle Myoblast Cells ([7]; 0.5%, incubation 120 min): 50%
- cell adhesion, muscle cells ([7]; 0.5%, incubation periods of 60-120 minutes): 50-60%
- cell adhesion, muscle cells ([7]; all concentrations (0.1-0.5%), 2-hour incubation period): 50-60%
- Adhesion of COS-7 Fibroblasts (COS-7 Fibroblasts [8]; 0.1%, incubation 5 min): 100%
- Adhesion of COS-7 Fibroblasts (COS-7 Fibroblasts [8]; 0.1%, incubation 10 min): 100%
- Adhesion of COS-7 Fibroblasts (COS-7 Fibroblasts [8]; 0.1%, incubation 20 min): 90%
- Adhesion of COS-7 Fibroblasts (COS-7 Fibroblasts [8]; 0.1%, incubation 60 min): 80%
- Adhesion of COS-7 Fibroblasts (COS-7 Fibroblasts [8]; 0.1%, incubation 120 min): 70%
- cell adhesion, fibroblasts (COS-7 Fibroblasts [8]; 0.1%, more extended incubation periods (60 and 120 minutes)): limited adhesion was observed
- Adhesion of COS-7 Fibroblasts (COS-7 Fibroblasts [8]; 0.25%, incubation 5 min): 95%
- Adhesion of COS-7 Fibroblasts (COS-7 Fibroblasts [8]; 0.25%, incubation 10 min): 90%
- Adhesion of COS-7 Fibroblasts (COS-7 Fibroblasts [8]; 0.25%, incubation 20 min): 60%
- Adhesion of COS-7 Fibroblasts (COS-7 Fibroblasts [8]; 0.25%, incubation 60 min): 60%
- Adhesion of COS-7 Fibroblasts (COS-7 Fibroblasts [8]; 0.25%, incubation 120 min): 70%
- cell adhesion, fibroblasts (COS-7 Fibroblasts [8]; 0.25%, incubation period of at least 20 minutes): 60%
- Adhesion of COS-7 Fibroblasts (COS-7 Fibroblasts [8]; 0.5%, incubation 5 min): 95%
- Adhesion of COS-7 Fibroblasts (COS-7 Fibroblasts [8]; 0.5%, incubation 10 min): 90%
- Adhesion of COS-7 Fibroblasts (COS-7 Fibroblasts [8]; 0.5%, incubation 20 min): 70%
- Adhesion of COS-7 Fibroblasts (COS-7 Fibroblasts [8]; 0.5%, incubation 60 min): 60%
- Adhesion of COS-7 Fibroblasts (COS-7 Fibroblasts [8]; 0.5%, incubation 120 min): 40%
- cell adhesion, fibroblasts (COS-7 Fibroblasts [8]; 0.5%, more extended incubation periods (beyond 10 minutes)): ≥ 40%
- cell adhesion, fibroblasts (COS-7 Fibroblasts [8]; most extreme conditions (0.5%, 1-2 h)): 40-60%

SMILES: O=S1(=O)CCN=CN1 [dehydrotaurultam]
- amount after γ-irradiation of a 1% taurolidine solution [6]: 780 mg
- content after γ-irradiation of a 1% taurolidine solution [6]: 0.156%
- cell adhesion, muscle cells ([9]; 0.25 %): 80%
- cell adhesion, muscle cells ([9]; 0.5 %): 80-90%
- Adhesion of C2C12 Muscle Myoblast Cells ([9]; 5 min, 0.1 %): 100%
- Adhesion of C2C12 Muscle Myoblast Cells ([9]; 5 min, 0.25 %): 100%
- Adhesion of C2C12 Muscle Myoblast Cells ([9]; 5 min, 0.5 %): 100%
- Adhesion of C2C12 Muscle Myoblast Cells ([9]; 10 min, 0.1 %): 100%
- Adhesion of C2C12 Muscle Myoblast Cells ([9]; 10 min, 0.25 %): 100%
- Adhesion of C2C12 Muscle Myoblast Cells ([9]; 10 min, 0.5 %): 100%
- Adhesion of C2C12 Muscle Myoblast Cells ([9]; 20 min, 0.1 %): 100%
- Adhesion of C2C12 Muscle Myoblast Cells ([9]; 20 min, 0.25 %): 90%
- Adhesion of C2C12 Muscle Myoblast Cells ([9]; 20 min, 0.5 %): 90%
- Adhesion of C2C12 Muscle Myoblast Cells ([9]; 60 min, 0.1 %): 100%
- Adhesion of C2C12 Muscle Myoblast Cells ([9]; 60 min, 0.25 %): 80%
- Adhesion of C2C12 Muscle Myoblast Cells ([9]; 60 min, 0.5 %): 90%
- cell adhesion, muscle cells ([9]; 2 h): 80-90%
- Adhesion of C2C12 Muscle Myoblast Cells ([9]; 120 min, 0.1 %): 90%
- Adhesion of C2C12 Muscle Myoblast Cells ([9]; 120 min, 0.25 %): 80%
- Adhesion of C2C12 Muscle Myoblast Cells ([9]; 120 min, 0.5 %): 80%
- cell adhesion, fibroblasts (COS-7 Fibroblasts [10]): not detected
- cell adhesion, fibroblasts (COS-7 Fibroblasts [10]; African green monkey, 0.25 %): 80%
- Adhesion of COS-7 Fibroblasts (COS-7 Fibroblasts [10]; African green monkey, 5 min, 0.1 %): 100%
- Adhesion of COS-7 Fibroblasts (COS-7 Fibroblasts [10]; African green monkey, 5 min, 0.25 %): 100%
- Adhesion of COS-7 Fibroblasts (COS-7 Fibroblasts [10]; African green monkey, 5 min, 0.5 %): 100%
- Adhesion of COS-7 Fibroblasts (COS-7 Fibroblasts [10]; African green monkey, 10 min, 0.1 %): 100%
- Adhesion of COS-7 Fibroblasts (COS-7 Fibroblasts [10]; African green monkey, 10 min, 0.25 %): 100%
- Adhesion of COS-7 Fibroblasts (COS-7 Fibroblasts [10]; African green monkey, 10 min, 0.5 %): 95%
- Adhesion of COS-7 Fibroblasts (COS-7 Fibroblasts [10]; African green monkey, 20 min, 0.1 %): 100%
- Adhesion of COS-7 Fibroblasts (COS-7 Fibroblasts [10]; African green monkey, 20 min, 0.25 %): 90%
- Adhesion of COS-7 Fibroblasts (COS-7 Fibroblasts [10]; African green monkey, 20 min, 0.5 %): 90%
- Adhesion of COS-7 Fibroblasts (COS-7 Fibroblasts [10]; African green monkey, 60 min, 0.1 %): 100%
- Adhesion of COS-7 Fibroblasts (COS-7 Fibroblasts [10]; African green monkey, 60 min, 0.25 %): 90%
- Adhesion of COS-7 Fibroblasts (COS-7 Fibroblasts [10]; African green monkey, 60 min, 0.5 %): 80%
- Adhesion of COS-7 Fibroblasts (COS-7 Fibroblasts [10]; African green monkey, 120 min, 0.1 %): 90%
- Adhesion of COS-7 Fibroblasts (COS-7 Fibroblasts [10]; African green monkey, 120 min, 0.25 %): 80%
- Adhesion of COS-7 Fibroblasts (COS-7 Fibroblasts [10]; African green monkey, 120 min, 0.5 %): 80%

Next, values leading:

- amount after γ-irradiation of a 1% taurolidine solution [6]: 53 mg
- content after γ-irradiation of a 1% taurolidine solution [6]: 0.0106%
SMILES: NCCS(=O)(=O)O [taurine]

- amount after γ-irradiation of a 1% taurolidine solution [6]: 9.7 mg
- content after γ-irradiation of a 1% taurolidine solution [6]: 0.0019%
SMILES: O=C=O [CO2]

- amount after γ-irradiation of a 1% taurolidine solution [6]: 85.5 mg
- content after γ-irradiation of a 1% taurolidine solution [6]: 0.0171%
SMILES: NCCS(N)(=O)=O [taurinamide]
